Results published in patent US11135326B2, “Storage-stable aqueous solutions of chlorine dioxide and methods for preparing and using them” (CDG ENVIRONMENTAL, LLC, priority 2005, dated 2021).

Assays:
[1] = cited from earlier work
[2] = Storage stability of aqueous chlorine dioxide solutions, concentration measured by amperometric titration
Source text: To determine the impact of various contaminants, the inventors set up a series of experiments to test the effect of the contaminants at various concentrations.
Pure water containing less than 1 ppm solid impurities was used to dissolve the chlorine dioxide gas and form the aqueous chlorine dioxide solutions at a concentration of 3000 ppm+/−5% chlorine dioxide as the initial starting concentration. The data in the figures is reported as % of starting concentration unless otherwise noted.
All data on concentration of aqueous solutions were measured by amperometric titration as described in EPA Standard Methods. Serial dilution was used to adjust to the range of the analytical device.
The accuracy of the analytical technique used is ±3%. Any variation of less than 3% is not considered significant.

Compound: [O][Cl+][O-] [chlorine dioxide]
- minimum decomposition rate ([1]; pH of 4.85 to 3.90, U.S. 2002/0037248): 0.6 % per hour
- strength lost ([1]; within 24 hours, U.S. Pat. No. 7,229,647): 80-90%
- loss of concentration (in words) ([2]; 1500-6000 ppm of salt, even at room temperature, compared with about 100 ppm or less): much higher
- rate of deterioration (in words) ([2]; 3000 ppm, alkali metal salts at 100 ppm, 40° C.): deteriorate at a much higher rate
- lose % of their concentration ([2]; 3000 ppm, less than 10 ppm alkali metal salts, about 100 days, temperatures up to 40° C.): less than 10%
- shelf life (in words) ([2]; FIG. 2, 4500 ppm starting concentration, distilled water, amber glass bottles, 10° C. to about 40° C.): commercially acceptable shelf life
- retains % of its starting concentration ([2]; FIG. 2, pure chlorine dioxide at about 3000 ppmw in pure water, 40° C., more than 90 days): ≥ 90%
- stability in PET bottles (in words) ([2]; FIG. 4, distilled water, 750 mL biaxially oriented PET bottles, after an initial rapid rate of loss): almost as stable as that stored in glass
- stability (in words) ([2]; FIG. 5, 25° C. and up to 100 ppm NaCl): equally stable within the margin of error
- rate of deterioration (in words) ([2]; FIG. 5, 100 ppm Na+ and 40° C.): deteriorated at a markedly higher rate
- effect of manganese ions on storage stability (in words) ([2]; FIG. 10, 3000 ppm initial, small amounts of manganese ions (e.g., 10 ppm)): greatly diminish the storage stability
- shelf life of refrigerated solutions ([2]; refrigerated, inferred from FIG. 2 data): about a year or more
